{"source": "patent US20060127400A1", "about": "“Activation of regulatory T cells by alpha-melanocyte stimulating hormone” (THE SCHEPENS EYE RESEARCH INSTITUTE, INC., priority 1999, published 2006)", "test_system": "primed T cells", "experiment": "lymphokine production by TCR-stimulated primed T cells, sandwich ELISA of culture supernatant", "type": "cell-based, mouse (BALB/c)", "settings": "48 h supernatant", "experimental": "Sandwich Enzyme Linked Immunosorbent Assay (ELISA). The wells of a 96-well flexible microtiter plate (Falcon, Oxnard, Calif.) were coated with capturing monoclonal antibody (anti-IFN-γ; Pharmingen, San Diego, Calif.) to the cytokine being assayed. The plate was incubated overnight at 4° C. and was washed with a solution of phosphate buffer saline, […] and 1% BSA (wash buffer) and blocked with PBS plus 1% BSA (PBS-BSA). The plate was incubated for 1 hour room temperature and washed. Samples were added to the wells and the plate was incubated for 3 hours at room temperature. The plate was washed 3 times and into each well 100 μl of 1.0 μg/ml of biotinylated-detecting monoclonal anti-IFN-γ antibody (Pharmingen) was added. The plate was incubated for 1 hour and washed 3 times. Strepavidin-β-galactosidase (Gibco/BRL), 100 μl, was added to the wells and the plate was incubated for 30 min and washed 5 times. The substrate chlorophenyl-red-β-D-galactoside (CPRG: Calbiochem, San Diego, Calif.) was added to the wells and color was allowed to develop for 30 min. The optical density of the converted CPRG was read on a standard ELISA plate reader at a wavelength of 570 nm. The INF-γ concentration of the standard samples were plotted against their OD to create a standard curve. Using this standard curve, the concentration of INF-γ in the assayed culture supernatant was determined from the OD of the test well and sample dilution factor.\nα-MSH treatment of primed T cells. […] The cells were collected onto filter paper using a Tomtec Plate Harvester 96, and radiolabel was measured using a Wallac 1205 Betaplate Liquid Scintillation Counter. […]\nIn FIG. 16A, proliferation was measured by adding to the T cell cultures 3H-thymidine 24 hours after activation and measuring the counts per minute (CPM) 24 hours later. In FIG. 16(B-D), lymphokine production was measured by assaying the 48 hour culture supernatants by sandwich ELISA for IFN-γ, IL-4, and IL-10. […]", "key": {"[1]": {"settings": "TCR-stimulated in the presence of α-MSH"}}, "note": "“Also recorded” adds a separate entry of the source. No end group written: not given here."}
{"substance": "α-melanocyte stimulating hormone (SYSMEHFRWGKPV; not fully specified; ends and bridges not checked; UniProt P01189 138-150, looked up) [α-MSH, synthetic α-MSH (Peninsula Laboratories); thirteen-amino acid neuropeptide derived from POMC]", "values": [{"measurement": "IL-4 in culture supernatant", "setting": "[1]", "value": "no effect; also recorded: no IL-4 was detected"}, {"measurement": "IL-10 production", "setting": "[1]", "value": "suppressed"}, {"measurement": "IFN-γ production by TCR-stimulated primed T cells", "setting": "versus T cells TCR-stimulated in the absence of α-MSH", "value": "significantly (p=0.05) suppressed"}]}
